Drawing on US20260347364A1, “PYRAZOLO[4,3-F]QUINAZOLINE DERIVATIVES AS MODULATORS OF G12D MUTANT KRAS USEFUL FOR THE TREATMENT OF CANCER” (JAZZ PHARMACEUTICALS IRELAND LTD., priority 2023, published 2026), this text covers IC50 for 20 compounds.

The term IC50 denotes the concentration that inhibits the measured activity by half. Read a low IC50 as greater potency.

Molecules are shown by their SMILES.

One experiment addresses T1, KRAS WT (Homo sapiens, UniProt P01116).
T1 construct: aa1-188 KRAS WT
As to the kind of experiment: HTRF nucleotide exchange assay, KRAS WT. Type of experiment: biochemical. The note with it: HTRF nucleotide exchange assay (NEA), class symbols. (Time-resolved FRET reads energy transfer from a long-lived donor to a nearby acceptor.)

Another experiment deals with T2, KRAS G12D (Homo sapiens, UniProt P01116, G12D).
T2 construct: aa1-188 KRAS WT, HRAS WT, NRAS WT, or KRAS containing the G12D
T2 sequence (P01116 1-188 isoform P01116-2 G12D): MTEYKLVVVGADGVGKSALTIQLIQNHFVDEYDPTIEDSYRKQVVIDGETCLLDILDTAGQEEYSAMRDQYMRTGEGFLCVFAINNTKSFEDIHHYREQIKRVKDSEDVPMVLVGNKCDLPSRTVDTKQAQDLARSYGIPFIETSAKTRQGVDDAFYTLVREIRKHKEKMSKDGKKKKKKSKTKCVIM
As to the kind of experiment: HTRF nucleotide exchange assay, KRAS G12D. Type of experiment: biochemical. The note with it: HTRF nucleotide exchange assay (NEA), class symbols.

T1 sequence (P01116 1-188 isoform P01116-2): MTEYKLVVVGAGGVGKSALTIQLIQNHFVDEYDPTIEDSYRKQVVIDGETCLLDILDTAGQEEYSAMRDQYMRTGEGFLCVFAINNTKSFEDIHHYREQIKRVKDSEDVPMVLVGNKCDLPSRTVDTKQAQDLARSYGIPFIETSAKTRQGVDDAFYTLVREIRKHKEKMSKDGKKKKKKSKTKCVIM

Turning to `CCc1c(F)ccc2cc(O)cc(-c3c(F)c4nc(OC[C@@H]5CCCN5C)nc(N5CCOCC(C)(O)C5)c4c4cn(C)nc34)c12` (stereo partly drawn) [Example 154, 4-[4-(8-ethyl-7-fluoro-3-hydroxy-1-naphthyl)-5-fluoro-2-methyl-7-[[(2S)-1-methylpyrrolidin-2-yl]methoxy]pyrazolo[4,3-f]quinazolin-9-yl]-6-methyl-1,4-oxazepan-6-ol], the IC50 on KRAS WT and against KRAS G12D was not above 10 nM in each case.

Take `CCc1c(F)ccc2cc(O)cc(-c3c(F)c4nc(OCC5(CN6CCCC6)CC5)nc(N5CCOCC(C)(O)C5)c4c4cn(C)nc34)c12` (stereo not shown) [Example 155, 4-[4-(8-ethyl-7-fluoro-3-hydroxy-1-naphthyl)-5-fluoro-2-methyl-7-[[1-(pyrrolidin-1-ylmethyl)cyclopropyl]methoxy]pyrazolo[4,3-f]quinazolin-9-yl]-6-methyl-1,4-oxazepan-6-ol]: the IC50 against KRAS WT and against KRAS G12D was not above 10 nM each time.

Turning to `CCc1c(F)ccc2cc(O)cc(-c3c(F)c4nc(OC[C@@H]5CCN5)nc(N5CCOCC(C)(O)C5)c4c4cn(C)nc34)c12` (stereo partly drawn) [Example 156, 4-[4-(8-ethyl-7-fluoro-3-hydroxy-1-naphthyl)-5-fluoro-2-methyl-7-[[(2S)-azetidin-2-yl]methoxy]pyrazolo[4,3-f]quinazolin-9-yl]-6-methyl-1,4-oxazepan-6-ol], the concentration for half-maximal inhibition (IC50) against KRAS WT and at KRAS G12D was not above 10 nM in each case.

Regarding `CCc1c(F)ccc2cc(O)cc(-c3c(F)c4nc(OCC5(CN(C)C)CC5)nc(N5CCOCC(C)(O)C5)c4c4cn(C)nc34)c12` (stereo not shown) [Example 157, 4-[7-[[1-[(dimethylamino)methyl]cyclopropyl]methoxy]-4-(8-ethyl-7-fluoro-3-hydroxy-1-naphthyl)-5-fluoro-2-methyl-pyrazolo[4,3-f]quinazolin-9-yl]-6-methyl-1,4-oxazepan-6-ol], the IC50 against KRAS WT and on KRAS G12D was not above 10 nM each time.

Consider `CCc1c(F)ccc2cc(O)cc(-c3c(F)c4nc(OC[C@@H]5CCN5C)nc(N5CCOCC(C)(O)C5)c4c4cn(C)nc34)c12` (stereo partly drawn) [Example 158, 4-[4-(8-ethyl-7-fluoro-3-hydroxy-1-naphthyl)-5-fluoro-2-methyl-7-[[(2S)-1-methylazetidin-2-yl]methoxy]pyrazolo[4,3-f]quinazolin-9-yl]-6-methyl-1,4-oxazepan-6-ol], for which the IC50 against KRAS WT and on KRAS G12D was not above 10 nM throughout.

`CCc1c(F)ccc2cc(O)cc(-c3c(F)c4nc(OC[C@]5(C)CCCN5)nc(N5CCOCC(C)(O)C5)c4c4cn(C)nc34)c12` (stereo partly drawn) [Example 159, 4-[4-(8-ethyl-7-fluoro-3-hydroxy-1-naphthyl)-5-fluoro-2-methyl-7-[[(2S)-2-methylpyrrolidin-2-yl]methoxy]pyrazolo[4,3-f]quinazolin-9-yl]-6-methyl-1,4-oxazepan-6-ol]: the IC50 against KRAS WT and at KRAS G12D was not above 10 nM throughout.

With `CCc1c(F)ccc2cc(O)cc(-c3c(F)c4nc(OCC56CCCN5CCC6)nc(N5CCOCC(C)(O)C5)c4c4cn(C)nc34)c12` (stereo not shown) [Example 160, 4-[4-(8-ethyl-7-fluoro-3-hydroxy-1-naphthyl)-5-fluoro-7-(1,2,3,5,6,7-hexahydropyrrolizin-8-ylmethoxy)-2-methyl-pyrazolo[4,3-f]quinazolin-9-yl]-6-methyl-1,4-oxazepan-6-ol], the IC50 against KRAS WT and against KRAS G12D was not above 10 nM in each case.

For `CCc1c(F)ccc2cc(O)cc(-c3c(F)c4nc(OC[C@]5(C)CCCN5C)nc(N5CCOCC(C)(O)C5)c4c4cn(C)nc34)c12` (stereo partly drawn) [Example 161, 4-[4-(8-ethyl-7-fluoro-3-hydroxy-1-naphthyl)-5-fluoro-2-methyl-7-[[(2S)-1,2-dimethylpyrrolidin-2-yl]methoxy]pyrazolo[4,3-f]quinazolin-9-yl]-6-methyl-1,4-oxazepan-6-ol], the IC50 at KRAS WT and on KRAS G12D was not above 10 nM each time.

As for `CCc1c(F)ccc2cc(O)cc(-c3c(F)c4nc(OCC5(CN6CCOCC6)CC5)nc(N5CCOCC(C)(O)C5)c4c4cn(C)nc34)c12` (stereo not shown) [Example 162, 4-[4-(8-ethyl-7-fluoro-3-hydroxy-1-naphthyl)-5-fluoro-2-methyl-7-[[1-(morpholinomethyl)cyclopropyl]methoxy]pyrazolo[4,3-f]quinazolin-9-yl]-6-methyl-1,4-oxazepan-6-ol], the IC50 at KRAS WT and at KRAS G12D was not above 10 nM throughout.

For the compound `CCc1c(F)ccc2cc(O)cc(-c3c(F)c4nc(OCC5(CF)COC5)nc(N5CCOCC(C)(O)C5)c4c4cn(C)nc34)c12` (stereo not shown) [Example 163, 4-[4-(8-ethyl-7-fluoro-3-hydroxy-1-naphthyl)-5-fluoro-7-[[3-(fluoromethyl)oxetan-3-yl]methoxy]-2-methyl-pyrazolo[4,3-f]quinazolin-9-yl]-6-methyl-1,4-oxazepan-6-ol], the IC50 on KRAS WT and at KRAS G12D was not above 10 nM throughout.

Take `CCc1c(F)ccc2cc(O)cc(-c3c(F)c4nc(OCC5(C#N)CCOC5)nc(N5CCOCC(C)(O)C5)c4c4cn(C)nc34)c12` (stereo not shown) [Example 164, 3-[[4-(8-ethyl-7-fluoro-3-hydroxy-1-naphthyl)-5-fluoro-9-(6-hydroxy-6-methyl-1,4-oxazepan-4-yl)-2-methyl-pyrazolo[4,3-f]quinazolin-7-yl]oxymethyl]tetrahydrofuran-3-carbonitrile]: the IC50 at KRAS WT was 10 to 100 nM; against KRAS G12D, not above 10 nM.

Take `CCc1c(F)ccc2cc(O)cc(-c3c(F)c4nc(OCC56COC(COC)(C5)C6)nc(N5CCOCC(C)(O)C5)c4c4cn(C)nc34)c12` (stereo not shown) [Example 165, 4-[4-(8-ethyl-7-fluoro-3-hydroxy-1-naphthyl)-5-fluoro-7-[[1-(methoxymethyl)-2-oxabicyclo[2.1.1]hexan-4-yl]methoxy]-2-methyl-pyrazolo[4,3-f]quinazolin-9-yl]-6-methyl-1,4-oxazepan-6-ol]: the IC50 was 10 to 100 nM on KRAS WT and not above 10 nM at KRAS G12D.

Turning to `CCc1c(F)ccc2cc(O)cc(-c3c(F)c4nc(OCC5(CN(CC)CC)CC5)nc(N5CCOCC(C)(O)C5)c4c4cn(C)nc34)c12` (stereo not shown) [Example 166, -[7-[[1-(diethylaminomethyl)cyclopropyl]methoxy]-4-[8-ethyl-7-fluoro-3-(methoxymethoxy)-1-naphthyl]-5-fluoro-2-methyl-pyrazolo[4,3-f]quinazolin-9-yl]-6-methyl-1,4-oxazepan-6-ol], the IC50 against KRAS WT and at KRAS G12D was not above 10 nM in each case.

For the compound `CCc1c(F)ccc2cc(O)cc(-c3c(F)c4nc(OCC5(CF)COC5)nc(N5CC6CCC(C5)N6)c4c4cn(C)nc34)c12` [Example 167, 4-[9-(3,8-diazabicyclo[3.2.1]octan-3-yl)-5-fluoro-7-[[3-(fluoromethyl)oxetan-3-yl]methoxy]-2-methyl-pyrazolo[4,3-f]quinazolin-4-yl]-5-ethyl-6-fluoro-naphthalen-2-ol], the figures for the 50% inhibitory concentration (IC50) at KRAS WT and against KRAS G12D were 100 to 10000 nM and not above 10 nM, respectively.

`CCc1c(F)ccc2cc(O)cc(-c3c(F)c4nc(OCC5(C#N)CCOC5)nc(N5CC6CCC(C5)N6)c4c4cn(C)nc34)c12` (stereo not shown) [Example 168, 3-[[9-(3,8-diazabicyclo[3.2.1]octan-3-yl)-4-(8-ethyl-7-fluoro-3-hydroxy-1-naphthyl)-5-fluoro-2-methyl-pyrazolo[4,3-f]quinazolin-7-yl]oxymethyl]tetrahydrofuran-3-carbonitrile]: the figures for the IC50 against KRAS WT and on KRAS G12D were 100 to 10000 nM and not above 10 nM, respectively.

`CCc1c(F)ccc2cc(O)cc(-c3c(F)c4nc(OCC56COC(COC)(C5)C6)nc(N5CC6CCC(C5)N6)c4c4cn(C)nc34)c12` [Example 169, 4-[9-(3,8-diazabicyclo[3.2.1]octan-3-yl)-5-fluoro-7-[[1-(methoxymethyl)-2-oxabicyclo[2.1.1]hexan-4-yl]methoxy]-2-methyl-pyrazolo[4,3-f]quinazolin-4-yl]-5-ethyl-6-fluoro-naphthalen-2-ol]: the IC50 at KRAS WT is 100 to 10000 nM; at KRAS G12D it was not above 10 nM.

In the case of `CCc1c(F)ccc2cc(O)cc(-c3c(F)c4nc(OCC5(CN6CCC(C#N)C6)CC5)nc(N5CCOCC(C)(O)C5)c4c4cn(C)nc34)c12` (stereo not shown) [Example 170, 1-[[1-[[4-(8-ethyl-7-fluoro-3-hydroxy-1-naphthyl)-5-fluoro-9-(6-hydroxy-6-methyl-1,4-oxazepan-4-yl)-2-methyl-pyrazolo[4,3-f]quinazolin-7-yl]oxymethyl]cyclopropyl]methyl]pyrrolidine-3-carbonitrile], the IC50 at KRAS WT and at KRAS G12D was not above 10 nM each time.

In the case of `CCc1c(F)ccc2cc(O)cc(-c3c(F)c4nc(OCC5(CN6CC(C#N)C6)CC5)nc(N5CCOCC(C)(O)C5)c4c4cn(C)nc34)c12` (stereo not shown) [Example 171, 1-[[1-[[4-(8-ethyl-7-fluoro-3-hydroxy-1-naphthyl)-5-fluoro-9-(6-hydroxy-6-methyl-1,4-oxazepan-4-yl)-2-methyl-pyrazolo[4,3-f]quinazolin-7-yl]oxymethyl]cyclopropyl]methyl]azetidine-3-carbonitrile], the IC50 against KRAS WT and at KRAS G12D was not above 10 nM in each case.

Take `CCc1c(F)ccc2cc(O)cc(-c3c(F)c4nc(OCC5(CN6CCCCC6)CC5)nc(N5CCOCC(C)(O)C5)c4c4cn(C)nc34)c12` (stereo not shown) [Example 172, 4-[4-(8-ethyl-7-fluoro-3-hydroxy-1-naphthyl)-5-fluoro-2-methyl-7-[[1-(1-piperidylmethyl)cyclopropyl]methoxy]pyrazolo[4,3-f]quinazolin-9-yl]-6-methyl-1,4-oxazepan-6-ol]: the IC50 against KRAS WT and against KRAS G12D was not above 10 nM each time.

Consider `Cc1cc2[nH]ncc2c(-c2c(C)c3nc(OCC45CCCN4CC(F)C5)nc(N4CCOCC(C)(O)C4)c3c3cn(C)nc23)c1Cl` [Example 173, 4-[4-(5-chloro-6-methyl-1H-indazol-4-yl)-2,5-dimethyl-7-[[(2R,8S)-2-fluoro-1,2,3,5,6,7-hexahydropyrrolizin-8-yl]methoxy]pyrazolo[4,3-f]quinazolin-9-yl]-6-methyl-1,4-oxazepan-6-ol], for which the values for the IC50 against KRAS WT and at KRAS G12D were 100 to 10000 nM and 10 to 100 nM, respectively.
